# From publication PMC9231138, “Dihydrotanshinone I Enhances Cell Adhesion and Inhibits Cell Migration in Osteosarcoma U−2 OS Cells through CD44 and Chemokine Signaling” (Molecules, 2022)
# Key:
# Assay type in all cases: cell-based, human
# CD44 = assay: Western blot of 80 kDa and 70 kDa CD44; details: DS−1 2.5, 5.0, and 7.5 µM for 24 h
# Experimental: Sample preparation: U−2 OS cells seeded in 10 cm Petri dishes were collected and washed with ice-cold PBS and RIPA lysis buffer with PMAF; phosphatase inhibitor was added, and the tubes were placed on ice for 30 min and vortexed for 30 s at intervals of 10 min. The samples were centrifuged at 12,000 g at 4 °C for 15 min, and the supernatants were collected in new centrifuge tubes. The protein samples were placed on ice, and the concentration of each protein sample was measured by the BCA kit (Thermo). The protein concentration was adjusted to the same by milli Q ultrapure water.
# Loading and running the gel: Equal amounts of protein were loaded into the wells of the 10% SDS-PAGE gel, along with molecular weight markers, and 15 μg of total protein from the cell lysate was loaded. We then ran the gel for 45 min at 200 V.
# Transferring the protein: We prepared the transfer stack as follows: negative plate, sponge, filter paper, gel, PVDF membrane, filter paper, sponge, and positive plate. The transfer was for 90 min at 200 mA.
# (§1) Antibody staining: We blocked the membrane for 1 h at room temperature using 5% blocking solution, then incubated the membrane with appropriate dilutions of the primary antibody in the blocking solution overnight at 4 °C. […] Images were acquired using darkroom development techniques for chemiluminescence and analyzed by Image J.
# p21 = assay: RT-PCR p21 mRNA in U−2 OS cells; details: 24 h
# Experimental: (§2) Total RNA within cells was extracted by the RNAeasy™ Animal Long RNA Isolation Kit with Spin Column (Shanghai, Beyotime); the concentrations and OD260/OD280 and OD230/OD260 values were measured by NanoDrop. Five micrograms of RNA was used for reverse transcription; each sample was diluted to 16 μL, and 4 μL of synthesized premix solution (5×) was added, then the mixtures were placed in a 42 °C water bath for 10 min, then an 80 °C water bath for 10 min to deactivate reverse transcriptase. After reverse transcription, each sample was diluted to 140 μL. PCR amplification was carried out by the ABI700 real-time PCR system, and the amplification reaction was detected with a SYBR probe. After PCR, actin and GAPDH were used as internal references, and the relative standard curve method (2^−ΔΔcT) determined the relative expression of mRNA.
# cyclin E1 = assay: RT-PCR cyclin E1 mRNA in U−2 OS cells; details: 24 h
# Experimental: as §2
# phospho−FOXO1 = assay: Western blot phospho−FOXO1
# Experimental: Figure 3 DS−1 inhibited the expression of transcription factor FOXO1 in U−2 OS cells. (A) U−2 OS cells were treated with DS−1 at 0, 3.125, 6.25, and 12.5 μM, and the changes in FOXO1 were analyzed by immunofluorescent staining, followed by confocal microscopy imaging. (B) U−2OS cells were treated with DS−1 at 0, 3.125, 6.25, and 12.5 μM, and FOXO1 and pFOXO1 were analyzed by Western blot; the changes were presented in histograms (C,D). (E) U−2 OS cells were treated with DS−1 at 6.25 μM for 0, 12, 24, and 48 h, then FOXO1 was analyzed by Western blot, and the changes are presented in the histogram (F). (G) The pFOXO1/FOXO1 value is shown in the histogram. […]
# Sample preparation: U−2 OS cells seeded in 10 cm Petri dishes were collected and washed with ice-cold PBS and RIPA lysis buffer with PMAF; phosphatase inhibitor was added, and the tubes were placed on ice for 30 min and vortexed for 30 s at intervals of 10 min. […] The protein samples were placed on ice, and the concentration of each protein sample was measured by the BCA kit (Thermo). […]
# as §1
# CDK2 = assay: RT-PCR CDK2 mRNA in U−2 OS cells; details: 24 h
# Experimental: as §2
# U−2 OS cells = assay: Length of actin protrusions (Image J); details: DS−1 for 24 h
# Experimental: Figure 8 CD44 knockdown reduced cell adhesion by shortening cell protrusions. (A) U−2 OS cells transfected with CD44 siRNA and no siRNA were seeded into a 24-well plate treated with 7.5 μM DS−1 for 24 h, and the expression of CD44 was detected by immunofluorescence. (B) CD44 expression of U−2 OS cells was detected by Western blotting after being treated with siRNA for 0, 24, and 36 h. (C) U−2 OS cells were first transfected with/without CD44 siRNA and then treated with DS−1 for 24 h, and its actin morphologies were detected. The representative magnified actin morphologies are listed in (D). (E) The lengths of protrusions in (C) were analyzed by Image J and are shown in a scatterplot graph. The lengths of 20 protrusions from actin in (C) were calculated. Each value is the average of 20 lengths of protrusions, ** p < 0.01, *** p < 0.005. (F) U−2 OS cells were transfected with CD44 siRNA, then treated with 0 and 7.5 μM DS−1 for 24 h and digested with trypsin at 25 °C; the digestion time was recorded by a microscope, and photos were taken every 30 s. The percentage of digested cells is recorded in (G).
# Actin promotes the formation of protrusions around the cells. After CD44 knockdown and DS−1 treatment, the morphology of actin was observed. The average length of protrusions was measured by Image J [59]. […]
# CDK4 = assay: RT-PCR CDK4 mRNA in U−2 OS cells; details: 24 h
# Experimental: as §2
# [1] = first of three DS−1 doses (2.5 µM per Fig. 5 legend)
# [2] = second of three DS−1 doses (5.0 µM per Fig. 5 legend)
# [3] = third of three DS−1 doses (7.5 µM per Fig. 5 legend)
smiles,measurement,setting,value
"Cc1cccc2c3c(ccc12)C1=C(C(=O)C3=O)[C@@H](C)CO1 [DS−1, 15,16-Dihydrotanshinone I]",70 kDa CD44 protein,CD44,decreased
same,80 kDa CD44 protein,CD44,significantly increased
same,"p21 mRNA, fold of the control group",p21; DS−1 2.5 µM,10.1 ± 3.9 fold
same,"p21 mRNA, fold of the control group",p21; DS−1 5.0 µM,56.8 ± 8.2 fold
same,"p21 mRNA, fold of the control group",p21; DS−1 7.5 µM,90.2 ± 6.7 fold
same,"cyclin E1 mRNA, fold of the control group",cyclin E1; [1],0.52 ± 0.04 fold
same,"cyclin E1 mRNA, fold of the control group",cyclin E1; [2],0.48 ± 0.08 fold
same,"cyclin E1 mRNA, fold of the control group",cyclin E1; [3],0.36 ± 0.04 fold
same,phosphorylation of FOXO1 (pFOXO1/FOXO1 value),"phospho−FOXO1; with increasing concentration of DS−1, Image J",increased
same,phospho−FOXO1,"phospho−FOXO1; with the concentration of DS−1 (3.125, 6.25, 12.5 μM) and the time of treatment (6.25 μM, 12, 24, 48 h)",reduced
same,"CDK2 mRNA, fold of the control group",CDK2; [1],0.85 ± 0.08 fold
same,"CDK2 mRNA, fold of the control group",CDK2; [2],0.80 ± 0.16 fold
same,"CDK2 mRNA, fold of the control group",CDK2; [3],0.66 ± 0.07 fold
same,average length of protrusions,"U−2 OS cells; CD44 knockdown group, knockdown without DS−1 0.203 ± 0.056 μm",0.213 ± 0.061 μm
same,average length of protrusions,"U−2 OS cells; no CD44 siRNA, control 0.307 ± 0.097 μm",0.403 ± 0.103 μm
same,"CDK4 mRNA, fold of the control group",CDK4; [1],0.53 ± 0.06 fold
same,"CDK4 mRNA, fold of the control group",CDK4; [2],0.37 ± 0.02 fold
same,"CDK4 mRNA, fold of the control group",CDK4; [3],0.29 ± 0.05 fold
